Values of other authors in US7115628B2, “Bridged piperidine derivatives as melanocortin receptor agonists” (Merck & Co., Inc., priority 2001, dated 2006).

What was measured:
[1] = system: males with psychogenic erectile dysfunction
[2] = system: patients with erectile dysfunction; conditions: for duration of effect / onset of action: after an oral dose; for share of men/patients in whom effective (adequate response): oral
[3] = subcutaneous injection formulation

For “Ac-Nle-c[Asp-His-DPhe-Arg-Trp-Lys]-NH2 [MT-II]”, the “absorption into the systemic circulation” value ([1]; in vivo, po) is listed as “not absorbed into the systemic circulation”, the response rate ([1]; injected intramuscularly or subcutaneously) is listed as 75% and the duration of action [1, 3] is listed as “approximately 2.5 hours”. For the same compound, the “time to onset of erection” value [1, 3] was 10 to 20 min.

For `Cc1ccc(N(CC2=NCCN2)c2cccc(O)c2)cc1` [phentolamine], the duration of effect [2] is given as 2 h, the onset of action [2] is given as 5 to 30 min and the “share of men/patients in whom effective (adequate response)” value [2] is given as 35–40%.

For `CCCc1nn(C)c2c(=O)[nH]c(-c3cc(S(=O)(=O)N4CCN(C)CC4)ccc3OCC)nc12` [Sildenafil, sildenafil], the duration of effect [2] is listed as “about 4 hours”, the onset of action [2] is listed as 30 to 60 min and the “share of men/patients in whom effective (adequate response)” value [2] is listed as “about 70%”.
